Measured values from US6472424B1, “Stabilized antimicrobial compositions containing halopropynyl compounds and benzylidene camphors” (Troy Technology Corporation, Inc., priority 2000, dated 2002).

Assay: Light-induced yellowing of IPBC-containing white test paint film after UV exposure
Assay type: physicochemical
Conditions: for effectiveness of the UV absorber in inhibiting degradation/yellowing of the IPBC: same test, assessment in words compared to the blank; for Δb value (difference in yellowing between blank paint and candidate paint sample): styrenated acrylic white house paint, IPBC 0.3%, formulation 20% IPBC / 40% UV absorber / 40% N-methyl pyrrolidone, paint film exposed to 340 nm UV radiation for four hours
Experimental: In the following examples a styrenated acrylic white house paint was used as the test medium to measure the effect of sunlight on the degradation of IPBC in various IPBC-containing compositions. The test paint composition was prepared by adding ingredients 2 through 6 slowly to a mixer containing water (ingredient 1). After mixing the composition for about 10 minutes, ingredients 7 through 11 were added, and mixing was continued until a smooth dispersion was obtained. Then the final two ingredients were added. Additional water can be added to obtain a desired viscosity.
In the following examples, a number of liquid formulations were prepared, each containing (1) 20% by weight IPBC (Troysan ® Polyphase® P-100), (2) 40% by weight of one of the UV absorbers indicated in each example which follows, and (3) 40% by weight of N-methyl pyrrolidone as a liquid vehicle. Each formulation was then incorporated into the white test paint by mixing in an amount sufficient to provide a test paint having IPBC present at a level of 0.3%. The paint formulations containing IPBC and UV absorbers were then applied on a Leneta chart with help of a 3 mil Bird type applicator. The paint film was allowed to dry for 10-15 minutes and then sprayed with a clear non-yellowing varnish (-3 mils), namely, Kamar Varnish 1312. The varnish was obtained from Krylon Products Group, The Specialty Division, Division of Sherwin-Williams Company, Ohio. The object of the varnish was to trap any of the chromophores formed during subsequent UV light exposure and to assure a short and reproducible test for accessing light-induced yellowing.
The paint film thus produced was exposed to 340 nm UV radiation for four hours and the yellowing was measured by Microflash 200D or Byk Handy Color measurement device. The difference in yellowing between a blank (the white test paint without fungicide) and the candidate paint sample, Δb, was recorded and used as the response for each test.

| Compound | effectiveness of the UV absorber in inhibiting degradation/yellowing of the IPBC | Δb value (difference in yellowing between blank paint and candidate paint sample) |
| --- | --- | --- |
| Cc1ccccc1C=C1C(=O)C2(C)CCC1C2(C)C (stereo not drawn) [3-(2-methylbenzylidene)camphor] | reasonably effective | 3.4 |
| CC12CCC(C(=Cc3ccc4c(c3)OCCO4)C1=O)C2(C)C (stereo not drawn) [3-(3,4-dioxoethylenebenzylidene)camphor] | effective in inhibiting degradation of the IPBC | 2.4 |
| CC12CCC(C(=Cc3cccc(Cl)c3)C1=O)C2(C)C (stereo not drawn) [3-(3-chlorobenzylidene)camphor] | reasonably effective | 3.3 |
| Cc1cccc(C=C2C(=O)C3(C)CCC2C3(C)C)c1 (stereo not drawn) [3-(3-methylbenzylidene)camphor] | effective in inhibiting degradation of the IPBC | 2.7 |
| CC12CCC(C(=Cc3ccc(Br)cc3)C1=O)C2(C)C (stereo not drawn) [3-(4-bromobenzylidene)camphor] | reasonably effective | 3.6 |
| CCCCOc1ccc(C=C2C(=O)C3(C)CCC2C3(C)C)cc1 (stereo not drawn) [3-(4-butoxybenzylidene)camphor] | very effective | 1.8 |
| CCOc1ccc(C=C2C(=O)C3(C)CCC2C3(C)C)cc1 (stereo not drawn) [3-(4-ethoxybenzylidene)camphor] | very effective | 1.3 |
| CC(C)c1ccc(C=C2C(=O)C3(C)CCC2C3(C)C)cc1 (stereo not drawn) [3-(4-isopropylbenzylidene)camphor] | reasonably effective | 3.5 |
| COc1ccc(C=C2C(=O)C3(C)CCC2C3(C)C)cc1 (stereo not drawn) [3-(4-methoxybenzylidene)camphor] | very effective | 1.3 |
| Cc1ccc(C=C2C(=O)C3(C)CCC2C3(C)C)cc1 (stereo not drawn) [3-(4-methylbenzylidene)camphor] | effective in inhibiting degradation of the IPBC | 2.5 |
| CCCCNC(=O)OCC#CI [IPBC, 3-iodo-2-propynyl butyl carbamate, reference compound] | a significant yellow color develops | 7.1 |
| CC12CCC(C(=Cc3ccccc3)C1=O)C2(C)C (stereo not drawn) [benzylidenecamphor] | effective in inhibiting degradation of the IPBC | 2.8 |
